What follows are molecules tested on rabbit skeletal myofibrils (fast skeletal myofibrils) (assay: Activation of fast skeletal myofibrils (PUMA assay, PK/LDH-coupled ATPase at pCa25)). Conditions: AC1.4 determined according to the procedure of Example 39; reported as class symbols.
Type: biochemical
Outline: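 Detergent-washed rabbit psoas myofibrils (~90% fast fibres, calcium-regulated) assayed at calcium giving 25% of maximal ATPase rate (pCa25). ADP turnover coupled via pyruvate kinase/lactate dehydrogenase to NADH oxidation, read at 340 nm. Buffer 12 mM PIPES, 2 mM MgCl2, 1 mM DTT, pH 6.8; AC1.4 values derived.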
For `Cc1ccccc1C(C)(C)CNc1ccc(-c2ccc3[nH]nc(N)c3c2)nn1` [[6-(3-amino(1H-indazol-5-yl))pyridazin-3-yl][2-methyl-2-(2-methylphenyl)propyl]amine], the “Mean AC1.4” value was “A (A=<1 uM)”.
With `CC(C)(CNc1ccc(-c2cccc(C(N)=O)c2)nn1)c1ccc(F)cc1` [3-(6-{[2-(4-fluorophenyl)-2-methylpropyl]amino}pyridazin-3-yl)benzamide] the “Mean AC1.4” value was “A (A=<1 uM)”.
`Oc1ccnc(C2(CNc3ccc(-c4ccc5[nH]ncc5c4)nn3)CCC2)c1` was tested, and the “Mean AC1.4” value was “D (D=>20 uM)”.
In the case of `CC(C)(CNc1ccc(-c2cccc(C(=O)N3CCCCC3)c2)nn1)c1ccc(F)cc1` [3-(6-{[2-(4-fluorophenyl)-2-methylpropyl]amino}pyridazin-3-yl)phenyl piperidyl ketone], the “Mean AC1.4” value is reported as “B (B=1-10 uM)”.
For `CC(C)(CNc1ccc(-c2ccc(=O)[nH]c2)nn1)c1ccc(F)cc1`, the “Mean AC1.4” value was “B (B=1-10 uM)”.
With `CC(C)(CNc1ccc(-c2ccc(C#N)nc2)nn1)c1ccc(F)cc1` [5-(6-{[2-(4-fluorophenyl)-2-methylpropyl]amino}pyridazin-3-yl)pyridine-2-carbonitrile] the “Mean AC1.4” value was “C (C=10-20 uM)”.
With `CC(C)(CNc1ccc(-c2ccc(C#N)cc2)nn1)c1ccc(F)cc1` [4-(6-{[2-(4-fluorophenyl)-2-methylpropyl]amino}pyridazin-3-yl)benzenecarbonitrile] the “Mean AC1.4” value was “B (B=1-10 uM)”.
For `CC(C)(CNc1ccc(-c2ccc3c(c2)NC(=O)C3(C)C)nn1)c1ccc(F)cc1` [6-(6-{[2-(4-fluorophenyl)-2-methylpropyl]amino}pyridazin-3-yl)-3,3-dimethylindolin-2-one], the “Mean AC1.4” value was “D (D=>20 uM)”.
For `CC(C)(CNc1ccc(-c2ccc3[nH]nc(N)c3c2)nn1)c1ncc(F)cc1F` [[6-(3-amino(1H-indazol-5-yl))pyridazin-3-yl][2-(3,5-difluoro(2-pyridyl))-2-methylpropyl]amine], the “Mean AC1.4” value was “A (A=<1 uM)”.
For `Cc1nc2ccc(-c3ccc(NCC(C)(C)c4ccc(F)cc4)nn3)cc2o1` [[2-(4-fluorophenyl)-2-methylpropyl][6-(2-methylbenzoxazol-6-yl)pyridazin-3-yl]amine], the “Mean AC1.4” value was “B (B=1-10 uM)”.
In the case of `CC(=O)NCc1ccc(-c2ccc(NCC(C)(C)c3ccc(F)cc3)nn2)cn1` [N-{[5-(6-{[2-(4-fluorophenyl)-2-methylpropyl]amino}pyridazin-3-yl)-2-pyridyl]methyl}acetamide], the “Mean AC1.4” value is reported as “C (C=10-20 uM)”.
In the case of `N=C(N)c1cccc(-c2ccc(NCC3(c4ncccc4F)CCC3)nn2)c1`, the “Mean AC1.4” value is reported as “D (D=>20 uM)”.
For `CC(C)(CNc1ccc(-c2ccc3[nH]c(=O)[nH]c3c2)nn1)c1ccccc1CO`, the “Mean AC1.4” value was “B (B=1-10 uM)”.
With `CC(C)(CNc1ccc(C#N)nn1)c1ccc(F)cc1` [6-{[2-(4-fluorophenyl)-2-methylpropyl]amino}pyridazine-3-carbonitrile] the “Mean AC1.4” value was “D (D=>20 uM)”.
In the case of `CC(C)(CNc1ccc(-c2ccc3[nH]nc(C(=N)N)c3c2)nn1)c1ccc(F)cc1` [5-(6-{[2-(4-fluorophenyl)-2-methylpropyl]amino}pyridazin-3-yl)-1H-indazole-3-carboxamidine], the “Mean AC1.4” value is reported as “B (B=1-10 uM)”.
With `CC(C)(CNc1ccc(-c2cccc(C(=O)NCCNC(=O)c3cccc(-c4ccc(NCC(C)(C)c5ccc(F)cc5)nn4)c3)c2)nn1)c1ccc(F)cc1` [[3-(6-{[2-(4-fluorophenyl)-2-methylpropyl]amino}pyridazin-3-yl)phenyl]-N-(2-{[3-(6-{[2-(4-fluorophenyl)-2-methylpropyl]amino}pyridazin-3-yl)phenyl]carbonylamino}eth-yl)carboxamide] the “Mean AC1.4” value was “B (B=1-10 uM)”.
For `CN(C)CCc1cccc(C(C)(C)CNc2ccc(-c3ccc4[nH]nc(N)c4c3)nn2)c1`, the “Mean AC1.4” value was “D (D=>20 uM)”.
For `CC(C)(CNc1ccc(-c2cccc(C(=O)NCCCN)c2)nn1)c1ccc(F)cc1` [N-(3-aminopropyl)[3-(6-{[2-(4-fluorophenyl)-2-methylpropyl]amino}pyridazin-3-yl)phenyl]carboxamide], the “Mean AC1.4” value was “B (B=1-10 uM)”.

Same assay, conditions: median AC1.4 class, procedure of Example 39
`COc1cccc(C2(Nc3ccc(-c4cccc(C(N)=O)c4)nn3)CCC2)n1` was tested, and the “Mean AC1.4” value was “B (B=1-10 uM)”.
For `Fc1cccnc1-c1ccc(NCC2(c3ncccc3F)CCC2)nn1` [{[(3-fluoro(2-pyridyl))cyclobutyl]methyl}[6-(3-fluoro(2-pyridyl))pyridazin-3-yl]amine], the “Mean AC1.4” value was “B (B=1-10 uM)”.
In the case of `O=C(N[C@H]1CCNC1)c1ccc(F)c(-c2ccc(NC[C@]3(c4ncccc4F)C[C@H](F)C3)nn2)c1` [N-((3S)pyrrolidin-3-yl){4-fluoro-3-[6-({[3-fluoro-1-(3-fluoro(2-pyridyl))cyclobutyl]methyl}ami-no)pyridazin-3-yl]phenyl}carboxamide], the “Mean AC1.4” value is reported as “B (B=1-10 uM)”.
For `CC(=O)N1CC(c2ccc(NCC3(c4ncccc4F)CCC3)nn2)C1`, the “Mean AC1.4” value was “D (D=>20 uM)”.
In the case of `Cc1cc(-c2ccc(NC3(c4ccc(F)cc4)CCC3)nn2)ccn1` [[(4-fluorophenyl)cyclobutyl][6-(2-methyl(4-pyridyl))pyridazin-3-yl]amine], the “Mean AC1.4” value is reported as “B (B=1-10 uM)”.
`CC(C)(C)OC(=O)N1CC(F)(F)CC1C(=O)NCc1cnc(-c2ccc(NCC3(c4ncccc4F)CCC3)nn2)s1` [tert-butyl (2S)-4,4-difluoro-2-[N-({2-[6-({[(3-fluoro(2-pyridyl))cyclobutyl]methyl}ami-no)pyridazin-3-yl](1,3-thiazol-5-yl)}methyl)carbamoyl]pyrrolidine-carboxylate] was tested, and the “Mean AC1.4” value was “B (B=1-10 uM)”.
In the case of `N#Cc1ncccc1-c1ccc(NCC2(c3ncccc3F)CCC2)nn1`, the “Mean AC1.4” value is reported as “C (C=10-20 uM)”.
In the case of `OC(c1cnc(-c2ccc(NCC3(c4ncccc4F)CCC3)nn2)s1)C(F)(F)F` (stereo not drawn) [2,2,2-trifluoro-1-{2-[6-({[(3-fluoro(2-pyridyl))cyclobutyl]methyl}ami-no)pyridazin-3-yl](1,3-thiazol-5-yl)}ethan-1-ol], the “Mean AC1.4” value is reported as “B (B=1-10 uM)”.
For `CS(=O)(=O)CCNC(=O)c1cnc(-c2ccc(NCC3(c4ncccc4F)CCC3)nn2)s1` [{2-[6-({[(3-fluoro(2-pyridyl))cyclobutyl]methyl}ami-no)pyridazin-3-yl](1,3-thiazol-5-yl)}-N-[2-(methylsulfonyl)ethyl]carboxamide], the “Mean AC1.4” value was “A (A=<1 uM)”.

Same assay, conditions: median AC1.4 reported as class; procedure of Example 39
In the case of `Fc1cccnc1C1(CNc2ccc(Cc3ccccc3)nn2)CCC1` [{[(3-fluoro(2-pyridyl))cyclobutyl]methyl}[6-benzylpyridazin-3-yl]amine], the “Mean AC1.4” value is reported as “D (D=>20 uM)”.
With `COc1ncc(-c2ccc(NCC3(c4ncccc4F)CCC3)nn2)cc1C#N` [5-[6-({[(3-fluoro(2-pyridyl))cyclobutyl]methyl}ami-no)pyridazin-3-yl]-2-methoxypyridine-3-carbonitrile] the “Mean AC1.4” value was “D (D=>20 uM)”.
In the case of `CCNC(=O)c1ccc(F)c(-c2ccc(NC[C@]3(c4ncccc4F)C[C@H](F)C3)nn2)c1` [N-ethyl{4-fluoro-3-[6-({[3-fluoro-1-(3-fluoro(2-pyridyl))cyclobutyl]methyl}ami-no)pyridazin-3-yl]phenyl}carboxamide], the “Mean AC1.4” value is reported as “B (B=1-10 uM)”.
For `O=C(N[C@H]1CCOC1)c1cccc(-c2ccc(NC[C@]3(c4ncccc4F)C[C@H](F)C3)nn2)c1` [N-((3S)oxolan-3-yl){3-[6-({[3-fluoro-1-(3-fluoro(2-pyridyl))cyclobutyl]methyl}ami-no)pyridazin-3-yl]phenyl}carboxamide], the “Mean AC1.4” value was “B (B=1-10 uM)”.
For `COc1ncc(-c2ccc(NC[C@]3(c4ncccc4F)C[C@H](F)C3)nn2)cc1C` [{[3-fluoro-1-(3-fluoro(2-pyridyl))cyclobutyl]methyl}[6-(6-methoxy-5-methyl(3-pyridyl))pyridazin-3-yl]amine], the “Mean AC1.4” value was “D (D=>20 uM)”.
`Cc1cc(NCC2(c3ncccc3F)CCC2)nnc1-c1cccc(C(N)=O)c1` [3-[6-({[(3-fluoro(2-pyridyl))cyclobutyl]methyl}ami-no)-4-methylpyridazin-3-yl]benzamide] was tested, and the “Mean AC1.4” value was “C (C=10-20 uM)”.
In the case of `COc1ccc(-c2ccc(NC[C@]3(c4ncccc4F)C[C@H](F)C3)nn2)cc1C(N)=O` [5-[6-({[3-fluoro-1-(3-fluoro(2-pyridyl))cyclobutyl]methyl}ami-no)pyridazin-3-yl]-2-methoxybenzamide], the “Mean AC1.4” value is reported as “B (B=1-10 uM)”.
For `NC(=O)c1ccc(O)c(-c2ccc(NCC3(c4ncccc4F)CCC3)nn2)c1` [3-[6-({[(3-fluoro(2-pyridyl))cyclobutyl]methyl}ami-no)pyridazin-3-yl]-4-hydroxybenzamide], the “Mean AC1.4” value was “B (B=1-10 uM)”.
`O=C(Nc1ncc[nH]1)c1ccc(NCC2(c3ncccc3F)CCC2)nn1` [[6-({[(3-fluoro(2-pyridyl))cyclobutyl]methyl}ami-no)pyridazin-3-yl]-N-imidazol-2-ylcarboxamide] was tested, and the “Mean AC1.4” value was “C (C=10-20 uM)”.
`O=C(NC1CCOCC1)c1cccc(-c2ccc(NC[C@]3(c4ncccc4F)C[C@H](F)C3)nn2)c1` [N-(2H-3,4,5,6-tetrahydropyran-4-yl){3-[6-({[3-fluoro-1-(3-fluoro(2-pyridyl))cyclobutyl]methyl}ami-no)pyridazin-3-yl]phenyl}carboxamide] was tested, and the “Mean AC1.4” value was “B (B=1-10 uM)”.
`NC(=O)C1CCCC1NC(=O)c1ccc(NCC2(c3ncccc3F)CCC2)nn1` (stereo not drawn) [2-{[6-({[(3-fluoro-2-pyridyl)cyclobutyl]methyl}ami-no)pyridazin-3-yl]carbonylamino}cyclopentane-carboxamide] was tested, and the “Mean AC1.4” value was “D (D=>20 uM)”.
In the case of `NC(=O)c1ccc(O)c(-c2ccc(N3CC4(c5ncccc5F)CC3C4)nn2)c1` [3-{6-[4-(3-fluoro(2-pyridyl))-2-azabicyclo[2.1.1]hex-2-yl]pyridazin-3-yl}-4-hydroxybenzamide], the “Mean AC1.4” value is reported as “D (D=>20 uM)”.
